In PubChem BioAssay AID256 (DTP/NCI, 2004):
“And” between values parts separate entries of the source, which are not always exact repeats. Equal entries are not always repeated. Toxic doses and inconclusive results are not listed.

Tested on: CD2F1 mice, L1210 leukemia ip, survival T/C
Experiment: NCI In Vivo Anticancer Drug Screen. Data for tumor model L1210 Leukemia (intraperitoneal) in CD2F1 (CDF1) mice
Settings: higher = longer survival
Outline: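 Implant tumor; dose compound or vehicle; measure endpoint in both groups; report treated divided by control.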

[1] = endpoint: mean survival time, dose: 100.0 mg/kg/injection, schedule: Q04DX002 (ip), vehicle: saline with Tween-80
[2] = endpoint: mean survival time, dose: 400.0 mg/kg/injection, schedule: Q04DX002 (ip), vehicle: saline with Tween-80

Compound: OCC1OC(n2cnc3c(=S)nc[nH]c32)C(O)C1O (stereo not drawn)
- T/C (endpoint: mean survival time, dose: 75.0 mg/kg/injection, schedule: Q01DX005 (ip), vehicle: saline): 104 % of control
- T/C (endpoint: mean survival time, dose: 75.0 mg/kg/injection, schedule: Q01DX009 (ip), vehicle: saline): 107 % of control
- T/C (endpoint: mean survival time, dose: 75.0 mg/kg/injection, schedule: Q01DX009 (oral), vehicle: saline): 97 % of control
- T/C (endpoint: mean survival time, dose: 100.0 mg/kg/injection, schedule: Q01DX005 (ip), vehicle: saline): 122 % of control
- T/C (endpoint: mean survival time, dose: 100.0 mg/kg/injection, schedule: Q01DX007 (ip), vehicle: Klucel (hydroxypropylcellulose) (HPC)): 115 % of control
- T/C (endpoint: mean survival time, dose: 100.0 mg/kg/injection, schedule: Q01DX007 (ip), vehicle: saline): 152 % of control
- T/C (endpoint: mean survival time, dose: 100.0 mg/kg/injection, schedule: Q01DX009 (ip), vehicle: Klucel (hydroxypropylcellulose) (HPC)): 118 % of control
- T/C (endpoint: mean survival time, dose: 100.0 mg/kg/injection, schedule: Q01DX009 (ip), vehicle: saline): 154 % of control
- T/C (endpoint: mean survival time, dose: 100.0 mg/kg/injection, schedule: Q03DX003 (ip), vehicle: Klucel (hydroxypropylcellulose) (HPC)): 95 % of control
- T/C (endpoint: mean survival time, dose: 100.0 mg/kg/injection, schedule: Q04DX003 (ip), vehicle: Klucel (hydroxypropylcellulose) (HPC)): 102 % of control
- T/C (endpoint: mean survival time, dose: 100.0 mg/kg/injection, schedule: Q04DX003 (ip), vehicle: saline): 113 % of control
- T/C (endpoint: mean survival time, dose: 112.0 mg/kg/injection, schedule: Q01DX010 (ip), vehicle: saline): 110 % of control
- T/C (endpoint: mean survival time, dose: 150.0 mg/kg/injection, schedule: Q01DX005 (ip), vehicle: saline): 107 % of control
- T/C (endpoint: mean survival time, dose: 150.0 mg/kg/injection, schedule: Q01DX009 (ip), vehicle: saline): 116 % of control
- T/C (endpoint: mean survival time, dose: 150.0 mg/kg/injection, schedule: Q01DX009 (oral), vehicle: saline): 98 % of control
- T/C (endpoint: mean survival time, dose: 200.0 mg/kg/injection, schedule: Q01DX007 (ip), vehicle: saline): 157 % of control
- T/C (endpoint: mean survival time, dose: 200.0 mg/kg/injection, schedule: Q01DX009 (ip), vehicle: saline): 179 % of control
- T/C (endpoint: mean survival time, dose: 200.0 mg/kg/injection, schedule: Q03DX003 (ip), vehicle: Klucel (hydroxypropylcellulose) (HPC)): 102 % of control
- T/C (endpoint: mean survival time, dose: 200.0 mg/kg/injection, schedule: Q03DX003 (ip), vehicle: saline): 150 % of control
- T/C (endpoint: mean survival time, dose: 200.0 mg/kg/injection, schedule: Q04DX003 (ip), vehicle: Klucel (hydroxypropylcellulose) (HPC)): 100 % of control
- T/C (endpoint: mean survival time, dose: 200.0 mg/kg/injection, schedule: Q04DX003 (ip), vehicle: saline): 150 % of control
- T/C (endpoint: mean survival time, dose: 240.0 mg/kg/injection, schedule: Q01DX005 (ip), vehicle: saline): 164 % of control
- T/C (endpoint: mean survival time, dose: 300.0 mg/kg/injection, schedule: Q01DX002 (sc), vehicle: saline): 109 % of control
- T/C (endpoint: mean survival time, dose: 300.0 mg/kg/injection, schedule: Q01DX009 (oral), vehicle: saline): 105 % of control
- T/C (endpoint: mean survival time, dose: 300.0 mg/kg/injection, schedule: Q04DX003 (ip), vehicle: saline): 108 % of control
- T/C (endpoint: mean survival time, dose: 400.0 mg/kg/injection, schedule: Q01DX007 (ip), vehicle: saline): 104 % of control
- T/C (endpoint: mean survival time, dose: 400.0 mg/kg/injection, schedule: Q01DX009 (ip), vehicle: saline): 116 % of control
- T/C (endpoint: mean survival time, dose: 400.0 mg/kg/injection, schedule: Q03DX003 (ip), vehicle: Klucel (hydroxypropylcellulose) (HPC)): 111 % of control
- T/C (endpoint: mean survival time, dose: 400.0 mg/kg/injection, schedule: Q03DX003 (ip), vehicle: saline): 154 % of control
- T/C (endpoint: mean survival time, dose: 400.0 mg/kg/injection, schedule: Q04DX003 (ip), vehicle: Klucel (hydroxypropylcellulose) (HPC)): 111 % of control
- T/C (endpoint: mean survival time, dose: 400.0 mg/kg/injection, schedule: Q04DX003 (ip), vehicle: saline): 175 % of control
- T/C (endpoint: mean survival time, dose: 480.0 mg/kg/injection, schedule: Q01DX005 (ip), vehicle: saline): 156 % of control
- T/C (endpoint: mean survival time, dose: 600.0 mg/kg/injection, schedule: Q01DX001 (ip), vehicle: saline): 97 % of control
- T/C (endpoint: mean survival time, dose: 600.0 mg/kg/injection, schedule: Q01DX002 (ip), vehicle: saline): 104 % of control
- T/C (endpoint: mean survival time, dose: 600.0 mg/kg/injection, schedule: Q01DX002 (sc), vehicle: saline): 116 % of control
- T/C (endpoint: mean survival time, dose: 600.0 mg/kg/injection, schedule: Q01DX009 (oral), vehicle: saline): 97 % of control
- T/C (endpoint: mean survival time, dose: 600.0 mg/kg/injection, schedule: Q03HX008 (ip), vehicle: saline): 119 % of control
- T/C (endpoint: mean survival time, dose: 600.0 mg/kg/injection, schedule: Q03HX016 (ip), vehicle: saline): 121 % of control
- T/C (endpoint: mean survival time, dose: 600.0 mg/kg/injection, schedule: Q04DX003 (ip), vehicle: saline): 114 % of control
- T/C (endpoint: mean survival time, dose: 600.0 mg/kg/injection, schedule: Q08DX002 (ip), vehicle: saline): 104 % of control
- T/C (endpoint: mean survival time, dose: 900.0 mg/kg/injection, schedule: Q01DX002 (ip), vehicle: saline): 118 % of control
- T/C (endpoint: mean survival time, dose: 1200.0 mg/kg/injection, schedule: Q01DX001 (ip), vehicle: saline): 97 % of control
- T/C (endpoint: mean survival time, dose: 1200.0 mg/kg/injection, schedule: Q01DX002 (ip), vehicle: saline): 116 % of control
- T/C (endpoint: mean survival time, dose: 1200.0 mg/kg/injection, schedule: Q01DX009 (ip), vehicle: saline): 113 % of control
- T/C (endpoint: mean survival time, dose: 1200.0 mg/kg/injection, schedule: Q03HX016 (ip), vehicle: saline): 154 % of control
- T/C (endpoint: mean survival time, dose: 1200.0 mg/kg/injection, schedule: Q03HX024 (ip), vehicle: saline): 155 % of control and 158 % of control
- T/C (endpoint: mean survival time, dose: 1200.0 mg/kg/injection, schedule: Q08DX002 (ip), vehicle: saline): 115 % of control
- T/C (endpoint: mean survival time, dose: 2400.0 mg/kg/injection, schedule: Q01DX001 (ip), vehicle: saline): 98 % of control
- T/C (endpoint: mean survival time, dose: 2400.0 mg/kg/injection, schedule: Q03HX016 (ip), vehicle: saline): 156 % of control
- T/C (endpoint: median survival time, dose: 40.0 mg/kg/injection, schedule: Q01DX009 (ip), vehicle: saline): 114 % of control and 122 % of control
- T/C (endpoint: median survival time, dose: 160.0 mg/kg/injection, schedule: Q01DX009 (ip), vehicle: saline): 155 % of control and 185 % of control
- T/C (endpoint: median survival time, dose: 320.0 mg/kg/injection, schedule: Q01DX009 (ip), vehicle: saline): 185 % of control
- T/C (endpoint: median survival time, dose: 400.0 mg/kg/injection, schedule: Q01DX005 (ip), vehicle: water): 150 % of control

Compound: COC(=O)C1(C)CCCC2(C)C1CCC13OCC(CC21)C(O)(C(C)C)C3O (stereo not drawn)
- T/C (endpoint: mean survival time, dose: 100.0 mg/kg/injection, schedule: Q04DX003 (ip), vehicle: saline with Tween-80): 95 % of control
- T/C (endpoint: mean survival time, dose: 200.0 mg/kg/injection, schedule: Q04DX003 (ip), vehicle: saline with Tween-80): 97 % of control
- T/C (endpoint: mean survival time, dose: 400.0 mg/kg/injection, schedule: Q04DX003 (ip), vehicle: saline with Tween-80): 103 % of control

Compound: CCOC(=O)CCl
- T/C (endpoint: mean survival time, dose: 100.0 mg/kg/injection, schedule: Q04DX003 (ip), vehicle: other): 95 % of control
- T/C (endpoint: mean survival time, dose: 200.0 mg/kg/injection, schedule: Q04DX003 (ip), vehicle: other): 90 % of control

Compound: O=c1cc(-c2ccccc2)[nH]c(=S)[nH]1
- T/C (endpoint: mean survival time, dose: 100.0 mg/kg/injection, schedule: Q01DX001 (ip), vehicle: saline with Tween-80): 115 % of control
- T/C (endpoint: mean survival time, dose: 200.0 mg/kg/injection, schedule: Q01DX001 (ip), vehicle: saline with Tween-80): 102 % of control
- T/C (endpoint: mean survival time, dose: 400.0 mg/kg/injection, schedule: Q01DX001 (ip), vehicle: saline with Tween-80): 97 % of control

Compound: COc1ccc(N2C(N)=NC(N)=NC2(C)C)cc1
- T/C (endpoint: mean survival time, dose: 25.0 mg/kg/injection, schedule: Q04DX002 (ip), vehicle: saline): 106 % of control
- T/C (endpoint: mean survival time, dose: 50.0 mg/kg/injection, schedule: Q04DX002 (ip), vehicle: saline): 100 % of control

Compound: CCOc1ccccc1OC(=O)Nc1ccc(OC)cc1
- T/C (endpoint: mean survival time, dose: 25.0 mg/kg/injection, schedule: Q01DX009 (ip), vehicle: saline with Tween-80): 97 % of control
- T/C (endpoint: mean survival time, dose: 25.0 mg/kg/injection, schedule: Q04DX002 (ip), vehicle: saline with Tween-80): 114 % of control
- T/C (endpoint: mean survival time, dose: 50.0 mg/kg/injection, schedule: Q01DX009 (ip), vehicle: saline with Tween-80): 89 % of control
- T/C (endpoint: mean survival time, dose: 50.0 mg/kg/injection, schedule: Q04DX002 (ip), vehicle: saline with Tween-80): 104 % of control
- T/C (endpoint: mean survival time, dose: 100.0 mg/kg/injection, schedule: Q01DX009 (ip), vehicle: saline with Tween-80): 97 % of control
- T/C [1]: 94 % of control and 107 % of control
- T/C [2]: 98 % of control

Compound: CCOC(=O)CC(COC)C(Br)(C(=O)OCC)C(=O)OCC (stereo not drawn)
- T/C (endpoint: mean survival time, dose: 1.56 mg/kg/injection, schedule: Q01DX009 (ip), vehicle: Klucel (hydroxypropylcellulose) (HPC)): 104 % of control
- T/C (endpoint: mean survival time, dose: 3.13 mg/kg/injection, schedule: Q01DX009 (ip), vehicle: Klucel (hydroxypropylcellulose) (HPC)): 107 % of control
- T/C (endpoint: mean survival time, dose: 6.25 mg/kg/injection, schedule: Q01DX009 (ip), vehicle: Klucel (hydroxypropylcellulose) (HPC)): 102 % of control
- T/C (endpoint: mean survival time, dose: 12.5 mg/kg/injection, schedule: Q01DX009 (ip), vehicle: Klucel (hydroxypropylcellulose) (HPC)): 104 % of control
- T/C (endpoint: mean survival time, dose: 25.0 mg/kg/injection, schedule: Q01DX009 (ip), vehicle: Klucel (hydroxypropylcellulose) (HPC)): 104 % of control

Compound: O=c1oc2ccccc2c2ccccc12
- T/C [1]: 108 % of control
- T/C (endpoint: mean survival time, dose: 200.0 mg/kg/injection, schedule: Q04DX002 (ip), vehicle: saline with Tween-80): 101 % of control
- T/C [2]: 101 % of control
